Read-outs that look alike come from different tables or passages of the source.
What was measured:
MV4-11 cells = experiment: MV4-11 Cell Cytotoxicity Assay (CellTiter-Blue, 72 h); format: cell-based, human; details: 72 h at 37° C.
Method: In some embodiments, the potency of the STAT5 inhibitors are evaluated by an in vitro assay such as MV4-11 Cell Cytotoxicity Assay. MV4-11 cells were grown in Iscove's Modified Dulbecco's Medium (IMDM) supplemented with 10% fetal bovine serum (FBS). 10,000 cells were plated per well in 96-well flat-bottom sterile culture plates with low-evaporation lids. After 24 h, inhibitors and a vehicle control (0.5% DMSO) were added and the cells were incubated for 72 h at 37° C. in 5% CO2. Inhibitors were examined in triplicate at a maximal concentration of 50 μM, followed by 1:2 dilutions in subsequent wells (25, 12.5, 6.25, 3.125, 1.5625, 0.78125, 0.390625, 0.195313 and 0.097656 μM). After 72 h, the wells were treated with CellTiter-Blue® (20 μL/well), and the plates were incubated using standard cell culture conditions for 1 hour. Fluorescence was measured at 560/590 nm.

[1] = Reactivity Profiling with Glutathione (GSH), HPLC; format: in vitro ADME; details: 5 mM glutathione (GSH) in cell culture medium, 25 μM inhibitor, IMDM 10% FBS, 0.5% DMSO, 25° C., read-out: T1/2-GSH
Method: In some embodiments, metabolic stability of the compounds are evaluated according to their reactivity profiles with GSH.
3.5 μL of 5 mM stocking solution of the inhibitors in DMSO was added to 697.5 μL of Iscove's Modified Dulbecco's Medium (IMDM) supplemented with 10% FBS and antibiotic antimycotic solution, with 5 mM glutathione to afford a final concentration of 25 μM inhibitor with 0.5% DMSO. The solution was then immediately placed in the sample tray at 25° C. Sample was analyzed at pre-defined intervals, typically every 1.5 hours, for up to four injections, by HPLC, included at time zero, without further pre-treatment. For each inhibitor, its peak is integrated at different time points and compared to the time zero injection in order to obtain a percentage remaining. Half-life is calculated according to a first order reaction kinetic taking into account those time points for which remaining percentage of inhibitor is above 40%, using the formula: t½=Ln(2)/k, where k is the slope of the linear plot of Ln[Inhibitor] vs time, according to the formula: Ln[A]=Ln[A]0−kt, where [A] is the value resulting from the integration at each time point, [A]0 the value at time zero, and t the time. For each inhibitor, both replicates are averaged and the resulting t½ reported. Selective reactivity against GSH in particular is confirmed by incubation of the inhibitor in the same solution without the presence of GSH, and single analysis after a time longer than the latest time point analyzed for the samples with GSH.

[2] = Homo sapiens, Table 3, read-out: IC50-MV-4-11

Compound	IC50 (MV4-11 cells; [2]) [nM]	half-life at 25 μM [1] [h]	other results
CC(C)(C)c1cc(CN(C(=O)CN(Cc2ccc(Cl)cc2)S(=O)(=O)c2c(F)c(F)c(F)c(F)c2F)c2ccc(C(=O)O)nc2)cc(C2CC2)c1 [Compound 1004, 5-(N-(3-(tert-butyl)-5-cyclopropylbenzyl)-2-(N-(4-chlorobenzyl)-(2,3,4,5,6-pentafluorophenyl)sulfonamido)acetamido) picolinic acid]	3160 to 100000	–	–
CC(C)(C)c1cc(CN(C(=O)CN(Cc2ccccc2F)S(=O)(=O)c2c(F)c(F)c(F)c(F)c2F)c2ccc(N)nc2)cc(C2CC2)c1 [Compound 1008, N-(6-aminopyridin-3-yl)-N-(3-(tert-butyl)-5-cyclopropylbenzyl)-2-(N-(2-fluorobenzyl)-(2,3,4,5,6-pentafluorophenyl)sulfonamido)acetamide]	1000 to 3160	–	–
CC(C)(C)c1cc(CN(C(=O)CN(Cc2ccc(Cl)cc2)S(=O)(=O)c2c(F)c(F)c(F)c(F)c2F)c2cnc(N)nc2)cc(C2CC2)c1 [Compound 1006, N-(2-aminopyrimidin-5-yl)-N-(3-(tert-butyl)-5-cyclopropylbenzyl)-2-(N-(4-chlorobenzyl)-(2,3,4,5,6-pentafluorophenyl)sulfonamido)acetamide]	1000 to 3160	9.23 to 1670	–
CC(C)(C)c1cc(CN(C(=O)CN(Cc2cnccc2C(F)(F)F)S(=O)(=O)c2c(F)c(F)c(F)c(F)c2F)c2cnc(N)nc2)cc(C2CC2)c1 [Compound 1017, N-(2-aminopyrimidin-5-yl)-N-(3-(tert-butyl)-5-cyclopropylbenzyl)-2-(N-((4-(trifluoromethyl)pyridin-3-yl)methyl)-(2,3,4,5,6-pentafluorophenyl)sulfonamido)acetamide]	0.01 to 1000	–	–
CC(C)(C)c1cc(CN(C(=O)CN(Cc2ccc(Cl)cc2)S(=O)(=O)c2c(F)c(F)c(F)c(F)c2F)C2=CNC(=O)NC2)cc(C2CC2)c1 [Compound 1018, N-(3-(tert-butyl)-5-cyclopropylbenzyl)-2-(N-(4-chlorobenzyl)-(2,3,4,5,6-pentafluorophenyl)sulfonamido)-N-(2-oxo-1,2,3,4-tetrahydropyrimidin-5-yl)acetamide]	–	–	IC50 (MV4-11 cells; Homo sapiens, Table 4, read-out: IC50-MV-4-11): 1000 to 3160 nM
CN(C)c1c(NCCN(Cc2cc(C3CC3)cc(C(C)(C)C)c2)C(=O)CN(Cc2c(F)cc(F)cc2F)S(=O)(=O)c2c(F)c(F)c(F)c(F)c2F)c(=O)c1=O [Compound 1011, N-(3-(tert-butyl)-5-cyclopropylbenzyl)-N-(2-((2-(dimethylamino)-3,4-dioxocyclobut-1-en-1-yl)amino)ethyl)-2-(N-(2,4,6-trifluorobenzyl)-(2,3,4,5,6-pentafluorophenyl)sulfonamido)acetamide]	0.01 to 1000	–	–
CNc1c(NCCN(Cc2cc(C3CC3)cc(C(C)(C)C)c2)C(=O)CN(Cc2ccccc2F)S(=O)(=O)c2c(F)c(F)c(F)c(F)c2F)c(=O)c1=O [Compound 1013, N-(3-(tert-butyl)-5-cyclopropylbenzyl)-N-(2-((2-(methylamino)-3,4-dioxocyclobut-1-en-1-yl)amino)ethyl)-2-(N-(2-fluorobenzyl)-(2,3,4,5,6-pentafluorophenyl)sulfonamido)acetamide]	0.01 to 1000	9.23 to 1670	–
CC(C)(C)c1cc(CN(C(=O)CN(Cc2ccc(Cl)cc2)S(=O)(=O)c2c(F)c(F)c(F)c(F)c2F)c2cccnc2)cc(C2CC2)c1 [Compound 1001, N-(3-(tert-butyl)-5-cyclopropylbenzyl)-2-(N-(4-chlorobenzyl)-(2,3,4,5,6-pentafluorophenyl)sulfonamido)-N-(pyridin-3-yl) acetamide]	1000 to 3160	–	–
CC(C)(C)c1cc(CN(C(=O)CN(Cc2ccccc2F)S(=O)(=O)c2c(F)c(F)c(F)c(F)c2F)c2cnc(N)nc2)cc(C2CC2)c1 [Compound 1009, N-(2-aminopyrimidin-5-yl)-N-(3-(tert-butyl)-5-cyclopropylbenzyl)-2-(N-(2-fluorobenzyl)-(2,3,4,5,6-pentafluorophenyl)sulfonamido)acetamide]	0.01 to 1000	4.12 to 9.23	–
CN(C)c1c(N(C)CCN(Cc2cc(C3CC3)cc(C(C)(C)C)c2)C(=O)CN(Cc2ccccc2F)S(=O)(=O)c2c(F)c(F)c(F)c(F)c2F)c(=O)c1=O [Compound 1014, N-(3-(tert-butyl)-5-cyclopropylbenzyl)-N-(2-((2-(dimethylamino)-3,4-dioxocyclobut-1-en-1-yl) (methyl)amino)ethyl)-2-(N-(2-fluorobenzyl)-(2,3,4,5,6-pentafluorophenyl)sulfonamido)acetamide]	0.01 to 1000	9.23 to 1670	–
N-(3-(tert-butyl)-5- cyclopropylbenzyl)-2-(N-(4- chlorobenzyl)-(2,3,4,5,6- pentafluorophenyl) sulfonamido)-N-(2- methoxypyrimidin-5-yl) acetamide [Compound 1003]	–	–	IC50 (MV4-11 cells; Table 3, read-out: IC50-MV-4-11): 1000 to 3160 nM
CN(C)c1c(NCCCN(Cc2cc(C3CC3)cc(C(C)(C)C)c2)C(=O)CN(Cc2ccccc2F)S(=O)(=O)c2c(F)c(F)c(F)c(F)c2F)c(=O)c1=O [Compound 1015, N-(3-(tert-butyl)-5-cyclopropylbenzyl)-N-(3-((2-(dimethylamino)-3,4-dioxocyclobut-1-en-1-yl)amino)propyl)-2-(N-(2-fluorobenzyl)-(2,3,4,5,6-pentafluorophenyl)sulfonamido)acetamide]	0.01 to 1000	–	–
CC(C)(C)c1cc(CN(C(=O)CN(Cc2ccc(Cl)cc2)S(=O)(=O)c2c(F)c(F)c(F)c(F)c2F)c2ccc(N)nc2)cc(C2CC2)c1 [Compound 1007, N-(6-aminopyridin-3-yl)-N-(3-(tert-butyl)-5-cyclopropylbenzyl)-2-(N-(4-chlorobenzyl)-(2,3,4,5,6-pentafluorophenyl)sulfonamido)acetamide]	1000 to 3160	–	–
CN(C)c1c(NCCN(Cc2cc(C3CC3)cc(C(C)(C)C)c2)C(=O)CN(Cc2cnccc2C(F)(F)F)S(=O)(=O)c2c(F)c(F)c(F)c(F)c2F)c(=O)c1=O [Compound 1012, N-(3-(tert-butyl)-5-cyclopropylbenzyl)-N-(2-((2-(dimethylamino)-3,4-dioxocyclobut-1-en-1-yl)amino)ethyl)-2-(N-((4-(trifluoromethyl)pyridin-3-yl)methyl)-(2,3,4,5,6-pentafluorophenyl)sulfonamido)acetamide]	0.01 to 1000	4.12 to 9.23	–
CN(C)c1c(NCCN(Cc2cc(C3CC3)cc(C(C)(C)C)c2)C(=O)CN(Cc2ccccc2F)S(=O)(=O)c2c(F)c(F)c(F)c(F)c2F)c(=O)c1=O [Compound 1010, N-(3-(tert-butyl)-5-cyclopropylbenzyl)-N-(2-((2-(dimethylamino)-3,4-dioxocyclobut-1-en-1-yl)amino)ethyl)-2-(N-(2-fluorobenzyl)-(2,3,4,5,6-pentafluorophenyl)sulfonamido)acetamide]	0.01 to 1000	9.23 to 1670	–
COc1ccc(N(Cc2cc(C3CC3)cc(C(C)(C)C)c2)C(=O)CN(Cc2ccc(Cl)cc2)S(=O)(=O)c2c(F)c(F)c(F)c(F)c2F)cn1 [Compound 1005, N-(3-(tert-butyl)-5-cyclopropylbenzyl)-2-(N-(4-chlorobenzyl)-(2,3,4,5,6-pentafluorophenyl)sulfonamido)-N-(6-methoxypyridin-3-yl) acetamide]	3160 to 100000	–	–
CC(C)(C)c1cc(CN(C(=O)CN(Cc2ccc(Cl)cc2)S(=O)(=O)c2c(F)c(F)c(F)c(F)c2F)c2ccc(O)nc2)cc(C2CC2)c1 [Compound 1002, N-(3-(tert-butyl)-5-cyclopropylbenzyl)-2-(N-(4-chlorobenzyl)-(2,3,4,5,6-pentafluorophenyl)sulfonamido)-N-(6-hydroxypyridin-3-yl) acetamide]	1000 to 3160	9.23 to 1670	–
CNc1c(N(C)CCN(Cc2cc(C3CC3)cc(C(C)(C)C)c2)C(=O)CN(Cc2ccccc2F)S(=O)(=O)c2c(F)c(F)c(F)c(F)c2F)c(=O)c1=O [Compound 1016, N-(3-(tert-butyl)-5-cyclopropylbenzyl)-N-(2-(methyl(2-(methylamino)-3,4-dioxocyclobut-1-en-1-yl)amino)ethyl)-2-(N-(2-fluorobenzyl)-(2,3,4,5,6-pentafluorophenyl)sulfonamido)acetamide]	0.01 to 1000	–	–

Reference: US20230150946A1, “HETEROCYCLE CONTAINING STAT INHIBITORS AND COMPOSITIONS” (JANPIX LIMITED, priority 2020, published 2023)
